According to paper PMC9441601, “Aspergillus oryzae accelerates the conversion of ergosterol to ergosterol peroxide by efficiently utilizing cholesterol” (Frontiers in Genetics, 2022):

target: T1, Osh3 (Aspergillus oryzae, UniProt Q2U562); experiment: microscale thermophoresis (MST), purified fluorescently labelled Osh3; assay type: binding; settings: not given
T1 construct: gene AO090020000057
T1 sequence (Q2U562 entry or part of it): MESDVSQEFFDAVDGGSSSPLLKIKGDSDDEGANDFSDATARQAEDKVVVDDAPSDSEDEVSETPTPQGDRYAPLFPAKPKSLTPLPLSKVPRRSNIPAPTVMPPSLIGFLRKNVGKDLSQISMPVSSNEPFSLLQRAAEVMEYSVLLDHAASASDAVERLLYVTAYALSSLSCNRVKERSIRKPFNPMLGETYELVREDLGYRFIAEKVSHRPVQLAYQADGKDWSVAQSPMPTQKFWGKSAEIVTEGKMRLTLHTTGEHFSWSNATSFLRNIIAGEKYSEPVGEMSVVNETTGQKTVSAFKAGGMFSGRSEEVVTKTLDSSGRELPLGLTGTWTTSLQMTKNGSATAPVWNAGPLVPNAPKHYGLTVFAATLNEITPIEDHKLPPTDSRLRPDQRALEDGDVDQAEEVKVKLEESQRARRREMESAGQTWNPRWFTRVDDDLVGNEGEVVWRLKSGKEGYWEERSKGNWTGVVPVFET

| SMILES | Kd |
| --- | --- |
| CC(C)[C@H](C)CC[C@@H](C)[C@H]1CC[C@H]2[C@@H]3CC=C4C[C@@H](O)CC[C@]4(C)[C@H]3CC[C@]12C [campesterol] | 339 ± 78.1 nM |
| CC[C@H](/C=C/[C@@H](C)[C@H]1CC[C@H]2[C@@H]3CC=C4C[C@@H](O)CC[C@]4(C)[C@H]3CC[C@]12C)C(C)C [stigmasterol] | 1 ± 0.8 nM |
| CC[C@H](CC[C@@H](C)[C@H]1CC[C@H]2[C@@H]3CC=C4C[C@@H](O)CC[C@]4(C)[C@H]3CC[C@]12C)C(C)C [β-sitosterol] | 65.8 ± 24.6 nM |

same assay, conditions: read-out: Kd

| SMILES | Kd |
| --- | --- |
| CC(C)CCC[C@@H](C)[C@H]1CC[C@H]2[C@@H]3C(=O)C=C4C[C@@H](O)CC[C@]4(C)[C@H]3CC[C@]12C [7-ketocholesterol] | 1460 nM |
| C[C@H](CCCC(C)(C)O)[C@H]1CC[C@H]2[C@@H]3CC=C4C[C@@H](O)CC[C@]4(C)[C@H]3CC[C@]12C [25-hydroxycholesterol] | 9.1 ± 2 nM |
| CC(C)[C@@H](C)/C=C/[C@@H](C)[C@H]1CC[C@H]2C3=C[C@@H](O)[C@@]4(O)C[C@@H](O)CC[C@]4(C)[C@H]3CC[C@]12C [cerevisterol] | 3.4 ± 1.3 nM |
| CC(C)CCC[C@@H](C)[C@H]1CC[C@H]2[C@@H]3CC=C4C[C@@H](O)CC[C@]4(C)[C@H]3CC[C@]12C [cholesterol] | 333 ± 45.3 nM |
| CC(C)[C@@H](C)/C=C/[C@@H](C)[C@H]1CC[C@@H]2[C@]1(C)CC[C@H]1[C@]23C=C[C@]2(C[C@@H](O)CC[C@]12C)OO3 [ergosterol peroxide] | 8.1 ± 2.1 nM |
| CC(C)[C@@H](C)/C=C/[C@@H](C)[C@H]1CC[C@H]2C3=CC=C4C[C@@H](O)CC[C@]4(C)[C@H]3CC[C@]12C [ergosterol] | 122 ± 24.3 nM |
